Counter-ions that a name gives are not always drawn.
The molecules below were run against AaDOP2 (Aedes aegypti, UniProt H6D5H2) (assay: AaDOP2 antagonist screen of the LOPAC1280 library (HEK-CRELuc-Aadop2 cells, luminescence)). Conditions: not given.
Chain of AaDOP2 (H6D5H2 1-476): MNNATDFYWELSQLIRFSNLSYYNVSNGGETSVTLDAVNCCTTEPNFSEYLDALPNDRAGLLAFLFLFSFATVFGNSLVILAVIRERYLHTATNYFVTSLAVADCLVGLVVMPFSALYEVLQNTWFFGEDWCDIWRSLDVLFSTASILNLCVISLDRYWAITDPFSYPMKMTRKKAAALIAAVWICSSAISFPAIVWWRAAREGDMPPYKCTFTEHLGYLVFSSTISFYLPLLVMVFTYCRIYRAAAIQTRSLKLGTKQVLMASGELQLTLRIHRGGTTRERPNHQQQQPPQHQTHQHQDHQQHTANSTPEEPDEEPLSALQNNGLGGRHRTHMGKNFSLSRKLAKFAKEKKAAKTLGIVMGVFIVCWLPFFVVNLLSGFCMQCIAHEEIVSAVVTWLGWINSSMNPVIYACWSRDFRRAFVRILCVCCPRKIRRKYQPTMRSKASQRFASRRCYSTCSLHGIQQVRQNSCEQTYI
Assay type: cell-based
In the case of CC(=O)S[C@@H]1CC2=CC(=O)CC[C@]2(C)[C@H]2CC[C@@]3(C)[C@@H](CC[C@@]34CCC(=O)O4)[C@H]12 [Compound 1099, Spironolactone], the “Compound effect (percent receptor signaling in presence of test compound, relative lux units relative to the SCH23390 control)” value is reported as 84.
CC(C)C[C@H](NC(=O)[C@H]1O[C@@H]1C(=O)O)C(=O)NCCCCN=C(N)N [Compound 480, E-64] was tested, and the “Compound effect (percent receptor signaling in presence of test compound, relative lux units relative to the SCH23390 control)” value was 112.
COCc1nc2c([nH]1)c(=O)n(C)c(=O)n2CC(C)C [Compound 749, 8-Methoxymethyl-3-isobutyl-1-methylxanthine] was tested, and the “Compound effect (percent receptor signaling in presence of test compound, relative lux units relative to the SCH23390 control)” value was 107.
For CC(=O)Oc1ccccc1C(=O)O [Compound 60, Acetylsalicylic acid], the “Compound effect (percent receptor signaling in presence of test compound, relative lux units relative to the SCH23390 control)” value was 87.
In the case of CC[C@]1(O)C[C@@H]2CN(CCc3c([nH]c4ccccc34)[C@@](C(=O)OC)(c3cc4c(cc3OC)N(C)[C@H]3[C@@](O)(C(=O)OC)[C@H](OC(C)=O)[C@]5(CC)C=CCN6CC[C@]43[C@@H]65)C2)C1.O=S(=O)(O)O [Compound 1251, Vinblastine sulfate salt], the “Compound effect (percent receptor signaling in presence of test compound, relative lux units relative to the SCH23390 control)” value is reported as 118.
For O=C(O)Cc1ccccc1Nc1c(Cl)cccc1Cl [Compound 405, Diclofenac sodium], the “Compound effect (percent receptor signaling in presence of test compound, relative lux units relative to the SCH23390 control)” value was 94.
COc1cc2nc(N3CCN(C(=O)C4COc5ccccc5O4)CC3)nc(N)c2cc1OC (stereo not shown) [Compound 432, Doxazosin mesylate] was tested, and the “Compound effect (percent receptor signaling in presence of test compound, relative lux units relative to the SCH23390 control)” value was 86.
With CC(CN(C)C)CN1c2ccccc2CCc2ccccc21 (stereo not shown) [Compound 1164, Trimipramine maleate] the “Compound effect (percent receptor signaling in presence of test compound, relative lux units relative to the SCH23390 control)” value was 13.
In the case of Nc1ncnc2c1ncn2C1CCCO1 (stereo not shown) [Compound 1136, SQ 22536], the “Compound effect (percent receptor signaling in presence of test compound, relative lux units relative to the SCH23390 control)” value is reported as 120.
In the case of Nc1c2c(nc3ccccc13)CCCC2O.O=C(O)/C=C\C(=O)O (stereo not shown) [Compound 587, Hydroxytacrine maleate], the “Compound effect (percent receptor signaling in presence of test compound, relative lux units relative to the SCH23390 control)” value is reported as 86.
In the case of CCCCc1ccc(C(=O)O)nc1 [Compound 525, Fusaric acid], the “Compound effect (percent receptor signaling in presence of test compound, relative lux units relative to the SCH23390 control)” value is reported as 152.
For COc1cccc(NC(=O)/C=C/c2ccc(Cl)cc2)c1 [Compound 1075, SB-366791], the “Compound effect (percent receptor signaling in presence of test compound, relative lux units relative to the SCH23390 control)” value was 105.
Cc1cc(C(C)(C)C)cc(C)c1CC1=NCCN1 [Compound 1271, Xylometazoline hydrochloride] was tested, and the “Compound effect (percent receptor signaling in presence of test compound, relative lux units relative to the SCH23390 control)” value was 85.
With S=C(Nc1ccccc1)Nc1nccs1 [Compound 938, 1-Phenyl-3-(2-thiazolyl)-2-thiourea] the “Compound effect (percent receptor signaling in presence of test compound, relative lux units relative to the SCH23390 control)” value was 84.
With CC(CCc1ccccc1)NCC(O)c1ccc(O)c(C(N)=O)c1 (stereo not shown) [Compound 693, Labetalol hydrochloride] the “Compound effect (percent receptor signaling in presence of test compound, relative lux units relative to the SCH23390 control)” value was 83.
For Cc1cc(O)c2c(c1)C(=O)c1cc(O)cc(O)c1C2=O [Compound 496, Emodin], the “Compound effect (percent receptor signaling in presence of test compound, relative lux units relative to the SCH23390 control)” value was 49.
With WB 64 [Compound 1263] the “Compound effect (percent receptor signaling in presence of test compound, relative lux units relative to the SCH23390 control)” value was 83.
For CCC(=O)c1ccc2c(c1)N(CCCN(C)C)c1ccccc1S2 [Compound 972, Propionylpromazine hydrochloride], the “Compound effect (percent receptor signaling in presence of test compound, relative lux units relative to the SCH23390 control)” value was 15.
c1ccc2c(c1)[I+]c1ccccc1-2 [Compound 373, Diphenyleneiodonium chloride] was tested, and the “Compound effect (percent receptor signaling in presence of test compound, relative lux units relative to the SCH23390 control)” value was 36.
NC(=O)C(=O)O [Compound 900, Sodium Oxamate] was tested, and the “Compound effect (percent receptor signaling in presence of test compound, relative lux units relative to the SCH23390 control)” value was 91.
In the case of CC(C)NCC(O)COc1ccc(CCOCC2CC2)cc1 (stereo not shown) [Compound 180, Betaxolol hydrochloride], the “Compound effect (percent receptor signaling in presence of test compound, relative lux units relative to the SCH23390 control)” value is reported as 95.
In the case of N=C(N)NC(=O)Cc1c(Cl)cccc1Cl [Compound 548, Guanfacine hydrochloride], the “Compound effect (percent receptor signaling in presence of test compound, relative lux units relative to the SCH23390 control)” value is reported as 112.
In the case of COc1cc([C@@H]2c3cc4c(cc3[C@H](O)[C@H]3COC(=O)[C@H]23)OCO4)cc(OC)c1OC [Compound 941, Podophyllotoxin], the “Compound effect (percent receptor signaling in presence of test compound, relative lux units relative to the SCH23390 control)” value is reported as 84.
With COc1cc(C(O)CN)ccc1O.Cl (racemic) [Compound 862, (±)-Normetanephrine hydrochloride] the “Compound effect (percent receptor signaling in presence of test compound, relative lux units relative to the SCH23390 control)” value was 81.
With CCCCNC(=O)NS(=O)(=O)c1ccc(C)cc1 [Compound 1148, Tolbutamide] the “Compound effect (percent receptor signaling in presence of test compound, relative lux units relative to the SCH23390 control)” value was 112.
With N[C@@H](Cc1ccc(N(CCCl)CCCl)cc1)C(=O)O [Compound 744, Melphalan] the “Compound effect (percent receptor signaling in presence of test compound, relative lux units relative to the SCH23390 control)” value was 102.
For C=CCN1CC[C@]23CCCC[C@H]2[C@H]1Cc1ccc(O)cc13 [Compound 726, Levallorphan tartrate], the “Compound effect (percent receptor signaling in presence of test compound, relative lux units relative to the SCH23390 control)” value was 93.
COc1cc([C@@H]2c3cc4c(cc3[C@@H](O[C@@H]3O[C@@H]5CO[C@@H](C)O[C@H]5[C@H](O)[C@H]3O)[C@H]3COC(=O)[C@H]23)OCO4)cc(OC)c1O [Compound 474, Etoposide] was tested, and the “Compound effect (percent receptor signaling in presence of test compound, relative lux units relative to the SCH23390 control)” value was 90.
CC(N)Cc1c[nH]c2ccc(O)cc12.O=C(O)/C=C\C(=O)O (stereo not drawn) [Compound 819, alpha-Methyl-5-hydroxytryptamine maleate] was tested, and the “Compound effect (percent receptor signaling in presence of test compound, relative lux units relative to the SCH23390 control)” value was 92.
With O=C(O)c1cc2cc(F)ccc2[nH]1 [Compound 8, 5-Fluoroindole-2-carboxylic acid] the “Compound effect (percent receptor signaling in presence of test compound, relative lux units relative to the SCH23390 control)” value was 92.
In the case of CN(C)S(=O)(=O)c1ccc2c(c1)/C(=C/c1cc3c([nH]1)CCCC3)C(=O)N2 [Compound 1026, SU 6656], the “Compound effect (percent receptor signaling in presence of test compound, relative lux units relative to the SCH23390 control)” value is reported as 65.
Cc1nc2sccn2c(=O)c1CCN1CCC(=C(c2ccc(F)cc2)c2ccc(F)cc2)CC1 [Compound 1061, Ritanserin] was tested, and the “Compound effect (percent receptor signaling in presence of test compound, relative lux units relative to the SCH23390 control)” value was 18.
With N[C@@H](CCCC(=O)O)C(=O)O [Compound 82, L-2-aminoadipic acid] the “Compound effect (percent receptor signaling in presence of test compound, relative lux units relative to the SCH23390 control)” value was 96.
For C=C/C(C)=C/[C@@]1(C)SC(=O)C(C)=C1O [Compound 939, Thiolactomycin], the “Compound effect (percent receptor signaling in presence of test compound, relative lux units relative to the SCH23390 control)” value was 96.
Cc1oncc1C(=O)Nc1ccc(C(F)(F)F)cc1 [Compound 705, Leflunomide] was tested, and the “Compound effect (percent receptor signaling in presence of test compound, relative lux units relative to the SCH23390 control)” value was 97.
In the case of Cl.Cn1ccc2cc3c(cc21)CCN3C(=O)Nc1cccnc1 [Compound 1141, SB 206553 hydrochloride], the “Compound effect (percent receptor signaling in presence of test compound, relative lux units relative to the SCH23390 control)” value is reported as 73.
In the case of N#C/C(=C\c1ccc(O)c(O)c1)C(=O)NCCCc1ccccc1 [Compound 1180, Tyrphostin AG 555], the “Compound effect (percent receptor signaling in presence of test compound, relative lux units relative to the SCH23390 control)” value is reported as 77.
For O=C(O)Cc1ccc(O)c(O)c1 [Compound 426, 3,4-Dihydroxyphenylacetic acid], the “Compound effect (percent receptor signaling in presence of test compound, relative lux units relative to the SCH23390 control)” value was 120.
For Oc1ccc2c3c1O[C@H]1c4[nH]c5ccccc5c4C[C@@]4(O)[C@@H](C2)N(CC2CC2)CC[C@]314 [Compound 878, Naltrindole hydrochloride], the “Compound effect (percent receptor signaling in presence of test compound, relative lux units relative to the SCH23390 control)” value was 81.
For NC(=O)N1c2ccccc2C=Cc2ccccc21 [Compound 254, Carbamazepine], the “Compound effect (percent receptor signaling in presence of test compound, relative lux units relative to the SCH23390 control)” value was 75.

Same assay, conditions: 10 µM compound, 300 nM dopamine, 2 hr; hit = compound effect <20
NC(N)=NCc1cccc(I)c1.NC(N)=NCc1cccc(I)c1.O=S(=O)(O)O [Compound 665, m-Iodobenzylguanidine hemisulfate] was tested, and the “Compound effect (percent receptor signaling in presence of test compound, relative lux units relative to the SCH23390 control)” value was 96%.
CCCCCC(O)CCCC(=O)O.[Na] (stereo not shown) [Compound 623, 5-hydroxydecanoic acid sodium] was tested, and the “Compound effect (percent receptor signaling in presence of test compound, relative lux units relative to the SCH23390 control)” value was 126%.
For Cl.O=C(O)C1CCCN(CCC=C(c2ccccc2)c2ccccc2)C1 (stereo not shown) [Compound 1124, SKF 89976A hydrochloride], the “Compound effect (percent receptor signaling in presence of test compound, relative lux units relative to the SCH23390 control)” value was 95%.
In the case of COc1nc(C)nc(Cl)c1NC1=NCCN1.Cl [Compound 740, Moxonidine hydrochloride], the “Compound effect (percent receptor signaling in presence of test compound, relative lux units relative to the SCH23390 control)” value is reported as 94%.
In the case of “Dequalinium analog, C-14 linker [Compound 368]”, the “Compound effect (percent receptor signaling in presence of test compound, relative lux units relative to the SCH23390 control)” value is reported as 39%.
CC[C@@H]1Cc2cc(O)ccc2C2=C1c1ccc(O)cc1C[C@H]2CC (relative stereo) [Compound 423, (R,R)-cis-Diethyl tetrahydro-2,8-chrysenediol] was tested, and the “Compound effect (percent receptor signaling in presence of test compound, relative lux units relative to the SCH23390 control)” value was 40%.
With Cl.c1ccc2nc(C3=NCCN3)ccc2c1 [Compound 209, BU224 hydrochloride] the “Compound effect (percent receptor signaling in presence of test compound, relative lux units relative to the SCH23390 control)” value was 92%.
In the case of Br.CCSC(=N)N [Compound 482, S-Ethylisothiourea hydrobromide], the “Compound effect (percent receptor signaling in presence of test compound, relative lux units relative to the SCH23390 control)” value is reported as 104%.
COc1c2c(nc3ccccc13)OC(C(C)(O)CO)C2 (stereo not shown) [Compound 411, Dubinidine] was tested, and the “Compound effect (percent receptor signaling in presence of test compound, relative lux units relative to the SCH23390 control)” value was 100%.
For Brc1ccc([C@H]2CN3CCSC3=N2)cc1.O=C(O)C(=O)O [Compound 3, S(-)-p-Bromotetramisole oxalate], the “Compound effect (percent receptor signaling in presence of test compound, relative lux units relative to the SCH23390 control)” value was 106%.
In the case of OC[C@H]1O[C@@H](n2cnc3ccccc32)[C@H](O)[C@@H]1O [Compound 367, D-ribofuranosylbenzimidazole], the “Compound effect (percent receptor signaling in presence of test compound, relative lux units relative to the SCH23390 control)” value is reported as 24%.
Cl.Nc1cc(Cl)c(N=C2NCCN2)c(Cl)c1 [Compound 20, p-Aminoclonidine hydrochloride] was tested, and the “Compound effect (percent receptor signaling in presence of test compound, relative lux units relative to the SCH23390 control)” value was 79%.

Same assay, conditions: read-out: % of the SCH23390 effect (percent inhibition of receptor response relative to the SCH23390 control)
CC(CN(C)C)CN1c2ccccc2CCc2ccccc21 (stereo not shown) [Compound 1164, Trimipramine maleate] showed an inhibition at 10 µM of 87%.
CCC(=O)c1ccc2c(c1)N(CCCN(C)C)c1ccccc1S2 [Compound 972, Propionylpromazine hydrochloride] was tested, and the inhibition at 10 µM was 85%.
For Cc1nc2sccn2c(=O)c1CCN1CCC(=C(c2ccc(F)cc2)c2ccc(F)cc2)CC1 [Compound 1061, Ritanserin], the inhibition at 10 µM was 83%.
